Source: patent US20080096963A1, “Use Of A Fatty Acid For Preparing A Topical Composition For Allaying Inflammatory Reaction Due To Vennemous Hymenoptera Strings” (CEREP, priority 2004, published 2008)

Molecular target: bee venom PLA2 (Apis mellifera, UniProt P00630)
Format: biochemical
Settings: pH 9

Sequence of bee venom PLA2 (P00630 34-167 limits assumed): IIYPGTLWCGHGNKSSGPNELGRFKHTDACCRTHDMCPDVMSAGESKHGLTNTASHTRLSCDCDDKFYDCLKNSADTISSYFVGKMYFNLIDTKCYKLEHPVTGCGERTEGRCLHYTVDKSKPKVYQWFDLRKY

In the case of `CCCCCCCC/C=C\CCCCCCCC(=O)O` [oleic acid, oleic (cis-Δ^9-octadecenoic) acid], the “inhibition of the enzymatic activity of bee venom PLA2” value is reported as “inhibit the enzymatic activity of bee venom PLA2 in a dose-dependent manner”.

For `CCCCC/C=C\C/C=C\CCCCCCCC(=O)O` [linoleic acid, linoleic (cis,cis-Δ^9-,Δ^12-octadecadienoic) acid], the “inhibition of the enzymatic activity of bee venom PLA2” value was “inhibit the enzymatic activity of bee venom PLA2 in a dose-dependent manner”.
